Experimental data taken from ChEMBL document CHEMBL1121961, “Synthesis and biological evaluation of 6-ethynyluracil, a thiol-specific alkylating pyrimidine” (J Med Chem, 1982).

Tests used:
Format in all cases: functional, cell-based
Details in all cases: Mus musculus
B16 = assay: In vitro inhibitory activity against B16 melanoma cell lines
[1] = system: Lewis lung carcinoma cell line; assay: In vitro inhibitory activity against lewis lung cell lines
L1210 = assay: In vitro inhibitory activity against leukemia L1210 cell lines

Compound	Concentration (B16) [µM]	Concentration [1] [µM]	Concentration (L1210) [µM]
Oc1cc(/C=C/C(Br)Br)nc(O)n1	1	8	1
C#Cc1cc(O)nc(O)n1	10	20	7
